{"source": "patent US20140017336A1", "about": "“CO-ADMINISTRATION OF ARSENIC COMPOUNDS AND ANTI-HERPES VIRUS ANTI-VIRALS” (priority 2011, published 2014)", "key": {"[1]": {"tested_on": "uninfected parental A549 cells", "conditions": "4 days, 10 nM ATO, 40 μM GCV"}, "[2]": {"target": "T1, PML NB (Homo sapiens, UniProt P29590)", "T1 construct": "CNE1 cells were infected with the BX-1 strain of EBV and PML-NBs were imaged by fluorescent microscopy; endogenous in cells; host or cells: CNE1<EBV-BX1> (EBV-infected CNE1) and uninfected parental CNE1", "T1 sequence (P29590 1-882)": "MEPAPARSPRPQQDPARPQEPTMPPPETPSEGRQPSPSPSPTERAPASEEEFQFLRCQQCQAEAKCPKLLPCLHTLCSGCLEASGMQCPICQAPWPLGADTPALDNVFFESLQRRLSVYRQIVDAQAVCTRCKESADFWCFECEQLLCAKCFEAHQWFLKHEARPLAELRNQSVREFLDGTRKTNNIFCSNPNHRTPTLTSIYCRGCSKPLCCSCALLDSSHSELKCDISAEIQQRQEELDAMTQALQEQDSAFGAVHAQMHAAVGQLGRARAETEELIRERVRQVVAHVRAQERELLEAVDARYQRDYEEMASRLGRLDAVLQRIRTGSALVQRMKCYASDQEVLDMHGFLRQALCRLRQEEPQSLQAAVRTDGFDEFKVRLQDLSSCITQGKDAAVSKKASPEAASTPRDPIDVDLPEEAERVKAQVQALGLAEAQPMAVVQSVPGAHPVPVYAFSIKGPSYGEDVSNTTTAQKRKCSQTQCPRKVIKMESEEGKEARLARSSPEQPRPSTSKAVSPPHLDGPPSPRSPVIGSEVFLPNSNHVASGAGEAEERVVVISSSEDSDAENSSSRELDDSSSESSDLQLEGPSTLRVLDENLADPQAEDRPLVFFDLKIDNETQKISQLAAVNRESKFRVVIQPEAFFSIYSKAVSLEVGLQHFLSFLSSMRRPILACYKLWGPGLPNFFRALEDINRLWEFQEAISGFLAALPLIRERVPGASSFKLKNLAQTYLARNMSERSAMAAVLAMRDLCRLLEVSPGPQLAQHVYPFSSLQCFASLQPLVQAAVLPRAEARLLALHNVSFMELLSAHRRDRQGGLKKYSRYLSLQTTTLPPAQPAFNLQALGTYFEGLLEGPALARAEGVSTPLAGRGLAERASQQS", "assay_type": "cell-based"}, "[3]": {"tested_on": "MUTU1<DNE1> cells (EBV-negative)", "assay": "Viable cell count (trypan blue exclusion), MUTU1<DNE1> cells", "assay_type": "cell-based, human", "conditions": "10 nM or 100 nM ATO, 2 and 3 days"}, "[4]": {"tested_on": "MUTU1 cells (EBV positive Burkitt's lymphoma-derived)", "assay": "Viable cell count (trypan blue exclusion), MUTU1 cells", "assay_type": "cell-based, human", "conditions": "10 nM or 100 nM ATO, 2 and 3 days"}}, "note": "“Also recorded” adds a separate entry of the source.", "data": [{"substance": "arsenic trioxide [ATO]", "values": [{"measurement": "viability of uninfected parental cells", "setting": "[1]", "result": "did not affect the viability; also recorded: no effect on the viability"}, {"measurement": "PML NB immunofluorescence signal", "setting": "[2]; 1.0 nM ATO", "result": "below that of baseline untreated uninfected cells"}, {"measurement": "ATO concentration sufficient to disrupt PML NBs", "setting": "[2]; EBV positive CNE1 cells", "result": 1, "unit": "nM"}, {"measurement": "PML NB immunofluorescence intensity, dose response", "setting": "[2]; EBV positive CNE1 cells", "result": "diminished by exposure to ATO in a dose dependent manner"}, {"measurement": "viable cells, EBV-negative MUTU cells", "setting": "[3]", "result": "No effect"}, {"measurement": "cell viability, EBV positive MUTU cells", "setting": "[4]", "result": "dose and time dependent suppression of cell viability"}]}]}
